Laboratory results reported in patent US20090311185A1, “Peptide having antianxiety activity and screening method therefor” (priority 2005, published 2009).
“Also recorded” adds a separate entry of the source. Bridges are numbered along the chain shown (N, C = ends). Roman numbers before positions name the chains, in order. Where no end group is shown, it is not given here.

Legend:
SALPR = molecular target: T1, SALPR (Homo sapiens, UniProt Q9NSD7); assay: Suppression of forskolin-increased transcription activity (CRE-PLAP reporter) in SALPR-SE302 cells; format: cell-based; details: forskolin 1 μmol/L, 1 day incubation
T1 construct: the area encoding SALPR is known to be from position 1 to position 1407 (1410 base pairs, 469 amino acid residues); expressed in transfected cells; host or cells: SE302 cells (HEK293 clone carrying the CRE-PLAP reporter), transduced with retrovirus vector pBabeCL(SALPR)IH and selected with hygromycin
T1 sequence (Q9NSD7 1-469): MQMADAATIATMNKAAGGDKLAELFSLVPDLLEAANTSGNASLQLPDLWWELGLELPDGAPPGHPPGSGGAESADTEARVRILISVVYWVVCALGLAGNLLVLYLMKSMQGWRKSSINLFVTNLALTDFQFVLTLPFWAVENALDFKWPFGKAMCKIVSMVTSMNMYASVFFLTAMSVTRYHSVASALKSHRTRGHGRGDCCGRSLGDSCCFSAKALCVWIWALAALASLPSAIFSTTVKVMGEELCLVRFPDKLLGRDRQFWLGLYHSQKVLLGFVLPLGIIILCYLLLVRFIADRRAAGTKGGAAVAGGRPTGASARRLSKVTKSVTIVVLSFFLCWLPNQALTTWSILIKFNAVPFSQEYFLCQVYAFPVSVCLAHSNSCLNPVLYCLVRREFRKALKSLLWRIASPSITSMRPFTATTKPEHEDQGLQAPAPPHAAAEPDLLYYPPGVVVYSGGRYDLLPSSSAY
Protocol: SE302 cells (3×10^3) constructed in Example 5 above were cultured in a 96-well plate (Asahi Techno Glass) using 100 μl of DMEM (Sigma) supplemented with […] fetal bovine serum (FBS) and PS (hereinafter called “culture medium”). On the following day, the retrovirus vector prepared in Example 4 was appropriately diluted and a 100-μl portion of the dilution and polybrene (also called as hexadimethrine bromide, Sigma) prepared in the culture medium (at a final concentration of 8 μg/ml) were added to the SE302 cells. On the following day, the culture medium was replaced by 200 μl of a culture medium supplemented with 500 μg/ml hygromycin (Invitrogen) and then incubation was continued. The SE302 cells for SALPR gene transfer grown under these conditions (hereinafter called “SALPR-SE302 cells”) were appropriately subcultured for experimental use.
SALPR-SE302 cells constructed in Example 6 above were suspended in a medium for measuring transcription activity (DMEM supplemented with 10% FBS (inactivated at 65° C. for 30 minutes)) and then inoculated in a 96-well plate (Beckton Dickinson) at 1×10^4 cells/well. […]

THP-1 cells = THP-1 cells of the immune system; WO 01/81562, Bathgate et al. 2002; cited from earlier work
mice = assay: Elevated plus-maze test after intracerebroventricular administration (mice); format: in vivo; details: BALB/c male mice, 1 nmol/mouse intracerebroventricular, 5 min test, vs vehicle
Protocol: The influence of relaxin-3 on anxiety activity was determined using an elevated plus-maze. An elevated plus-maze test is a behavioral pharmacological test which is widely used in the measurement of anxiety level of experimental animals such as rats or mice, or for the evaluation of drug efficacies of antianxiety drugs, using exploring behaviors in open arms, such as the time spent in open arms, as an index.
BALB/c male mice (7 weeks of age; Japan Charles River) were received cannulation into the lateral cerebroventricle under anesthesia. The mice were then fed, and administration experiments of relaxin-3 were carried out a week or later.
The human relaxin-3 (Peptide Institute, Inc.) was dissolved in physiological saline and was diluted to a final concentration of 1 nmol/mouse.
The tested mice with guide cannula implantation were intracerebroventricularly administered with each 2 μL of the human relaxin-3 administration solution (N=8) or a vehicle solution (physiological saline) (N=9) at a rate of 1 μL per minute using an infusion pump.
Antianxiety activities were measured using an elevated plus-maze. […] The behaviors of mice were recorded by a video, and the number of entries into the open and closed arms and the time spent in the open and closed arms were measured on each mouse by analyzing the video after the completion of the test. […]

rats [1] = assay: Defensive burying test after intracerebroventricular administration; format: in vivo, rat; details: F344 male rats, 15 min test, vs vehicle
Protocol: The influence of relaxin-3 on an anxiety activity was determined using a defensive burying test (Treit et al., Pharmacology Biochemistry and Behavior, 15, p. 619-626, 1981).
F344 male rats (7 weeks of age; Japan Charles River) were fed foods for experimental animals (MF; Oriental Yeast) to be adapted. The rats (150 to 200 g) received cannulation into the lateral cerebroventricle under anesthesia. Administration experiments of relaxin-3 were carried out a week or later.
The tested rats were placed and left in a testing chamber, which floor was covered with a bedding material to a height of 5 cm, for 30 minutes or more once a day from 3 days before the defensive burying test, so as to allow the tested rats to habituate to the testing environment. The rats were habituated to the environment without the stimulating electrode until the test. […]
On test day, the tested rats were placed in a test chamber (with bedding material to a height of 5 cm) with a stimulating electrode, so as to start an experiment. […] All behaviors of the tested rats were recorded using a videocamera, and the burying behavior time (burying time (sec.)) within 15 minutes from the first electrical shock was measured using the recorded tape. […]

rats [2] = assay: Elevated plus-maze test after intracerebroventricular administration (rats); format: in vivo, rat; details: Wistar male rats, 5 min test, vs vehicle
Protocol: The influence of relaxin-3 on anxiety activity was determined using an elevated plus-maze.
Wistar male rats (9 weeks of age; Japan Charles River) were received cannulation into the lateral cerebroventricle under anesthesia. The rats were then fed, and administration experiments of relaxin-3 were carried out a week or later.
The human relaxin-3 (Peptide Institute, Inc.) was dissolved in physiological saline and was diluted to a final concentration of 10 pmol/rat or 50 pmol/rat.
The tested rats with guide cannula implantation were administered with 5 μL each of the human relaxin-3 administration solution (10 pmol/rat, N=8; or 50 pmol/rat, N=7), or vehicle group (physiological saline, N=7) at a rate of 2.5 μL per minute using an infusion pump.
Antianxiety activities were measured using an elevated plus-maze. The maze was raised 50 cm above the floor and included four arms arranged in the form of a plus sign (+) spread from the central platform (10 cm×10 cm) positioned at the center. Two opposite arms (50 cm long and 10 cm wide) are open arms, and the other two opposite arms (50 cm long, 10 cm wide with walls 40 cm high) were closed arms. Lighting was arranged so as to set the luminance at the floor in the open arms was 60 to 80 lux. A rat 10 minutes after the intracerebroventricular administration was placed in the center of the plus-maze so as to face one of the open arms, and the test was carried out for 5 minutes. The test was conducted only within a period from 11:00 to 16:00. The behaviors of rats were recorded by a video, and the number of entries into the open and closed arms and the time spent in the open and closed arms were measured on each mouse by analyzing the video after the completion of the test. FIGS. 7 and 8 show the total number of entries into open and closed arms and the percentage of time spent in open arms within 5 minutes, respectively. To compare among the human relaxin-3 administration groups and the vehicle group, a significant difference test by the t-test was conducted.

[3] = 50 pmol/rat intracerebroventricular

| Substance | transcription activity increased by addition of forskolin (alkaline phosphatase reporter) (SALPR) | intracellular cyclic AMP (cAMP) (THP-1 cells) | total number of entries into open and closed arms (mice) | time spent in open arms (mice; P<0.05) | burying behavior time (rats [1]; 0.05 nmol/rat intracerebroventricular) | burying behavior time (rats [1]; 1 nmol/rat intracerebroventricular, Dunnett P<0.05) | total number of entries into open and closed arms (rats [2]; 10 pmol/rat intracerebroventricular) | time spent in open arms (rats [2]; 10 pmol/rat intracerebroventricular, P<0.05) | time spent in open arms (rats [2]; [3]) | total number of entries into open and closed arms (rats [2]; [3]) |
| --- | --- | --- | --- | --- | --- | --- | --- | --- | --- | --- |
| insulin [reference compound] | not affected | – | – | – | – | – | – | – | – | – |
| relaxin-3: Relaxin-3 (Phoenix Pharmaceuticals) used in the SALPR reporter assay; mature two-chain polypeptide also known as INSL7 | suppresses; also recorded: specific dose-dependent suppression | increase | – | – | – | – | – | – | – | – |
| human relaxin-3: Synthetic human relaxin-3: B-chain SEQ ID NO: 5 and A-chain SEQ ID NO: 6 bonded through disulfide bonds (beta RAAPYGVRLCGREFIRAVIFTCGGSRW; alpha DVLAGLSSSCCKWGCSKSEISSLC; disulfide I:10-II:11, I:22-II:24, II:10-II:15; not fully specified; ends not checked; listed as Homo sapiens) | – | – | no difference | significant increase | decreased | significant decrease | no difference | statistically significantly high | increase | no difference |
